Activity calls are given as the source filed them. The rule behind the calls is not given here.
How the values were obtained:
Format in all cases: functional, cell-based
MCF7 [1] = assay: Antiproliferative activity against human MCF7 cells at 10 uM after 72 hrs by MTT assay
MDA-MB-231 [2] = assay: Antiproliferative activity against human MDA-MB-231 cells at 10 uM after 72 hrs by alamarBlue assay
MCF7 [3] = assay: Antiproliferative activity against human MCF7 cells after 72 hrs by MTT assay; conditions: MCF7, 72 h
MDA-MB-231 [4] = assay: Antiproliferative activity against human MDA-MB-231 cells after 72 hrs by alamarBlue assay; conditions: MDA-MB-231, 72 h
HeLa = assay: Antiproliferative activity against human HeLa cells
U-937 = assay: Antiproliferative activity against human U937 cells
Jurkat = assay: Antiproliferative activity against human Jurkat cells

Row | Structure (SMILES) | Activity (MCF7 [1]) | Activity (MDA-MB-231 [2]) | IC50 (MCF7 [3]) [µM] | IC50 (MDA-MB-231 [4]) [µM] | IC50 (HeLa) [µM] | IC50 (U-937) [µM] | IC50 (Jurkat) [µM]
1 | C/C=C(\C)C(=O)O[C@@H]1[C@@H](O)[C@@H]2O[C@@H](CCCCC)CCCCCCC(=O)CCC(=O)OC[C@@H](O2)[C@H]1OC(=O)/C=C/c1ccccc1 | inactive | inactive | – | – | – | – | –
2 | C/C=C(\C)C(=O)O[C@@H]1[C@@H](O)[C@@H]2O[C@H]3[C@H](O[C@@H](CCCCC)CCCCCCC(=O)CCC(=O)OC[C@@H](O2)[C@H]1OC(=O)/C=C/c1ccccc1)O[C@H](C)[C@H](OC(C)=O)[C@@H]3OC(C)=O | – | – | 0.216 | 0.0165 | 0.138 | 0.0798 | 0.0826
3 | C/C=C(\C)C(=O)O[C@@H]1[C@@H](O)[C@@H]2OCCO[C@@H](CCCCC)CCCCCCC(=O)CCC(=O)OC[C@@H](O2)[C@H]1OC(=O)/C=C/c1ccccc1 | inactive | inactive | – | – | – | – | –
4 | C/C=C(\C)C(=O)O[C@H]1[C@@H]2O[C@@H](CCCCC)CCCCCCC(=O)CCC(=O)OC[C@@H](O2)[C@@H](O)[C@@H]1OC(=O)/C=C/c1ccccc1 | inactive | inactive | – | – | – | – | –
5 | C/C=C(\C)C(=O)O[C@@H]1[C@@H](O)[C@@H]2O[C@H]3[C@H](O[C@@H](CCCCC)CCCCCCC(=O)CCC(=O)OC[C@@H](O2)[C@H]1OC(=O)/C=C/c1ccccc1)O[C@H](C)[C@H](O)[C@@H]3O | – | – | 0.0867 | 0.131 | 0.133 | 0.0725 | 0.139
6 | C/C=C(\C)C(=O)O[C@@H]1[C@@H](O)[C@@H]2O[C@H]3[C@H](O[C@@H](CCCCC)CCCCCCC(=O)CCC(=O)OC[C@@H](O2)[C@H]1OC(=O)/C=C/c1ccccc1)O[C@H](C)[C@H](OC(C)=O)[C@@H]3O | Active | Active | 0.0437 | 0.0065 | 0.0164 | 0.0054 | 0.0061

— ChEMBL document CHEMBL4184144, “Design, synthesis and biological evaluation of fucose-truncated monosaccharide analogues of ipomoeassin F” (Bioorg Med Chem Lett, 2017)
